Measured values from ChEMBL document CHEMBL1146842, “Design, synthesis, and biological evaluations of novel quinolones as HIV-1 non-nucleoside reverse transcriptase inhibitors” (Bioorg Med Chem Lett, 2006).

Legend:
[1] = tested on: Human immunodeficiency virus 1; assay: Antiviral activity against HIV1; assay type: functional, organism-based
HEK293 = assay: Cytotoxicity against HEK293T cells; assay type: functional; conditions: Homo sapiens
[2] = tested on: Human immunodeficiency virus 1; assay: Antiviral activity against HIV1 E138K mutant; assay type: functional, organism-based
[3] = tested on: Human immunodeficiency virus 1; assay: Antiviral activity against HIV1 F227L mutant; assay type: functional, organism-based
[4] = tested on: Human immunodeficiency virus 1; assay: Antiviral activity against HIV1 I135V mutant; assay type: functional, organism-based
[5] = tested on: Human immunodeficiency virus 1; assay: Antiviral activity against HIV1 K103N mutant; assay type: functional, organism-based
[6] = tested on: Human immunodeficiency virus 1; assay: Antiviral activity against HIV1 L100I mutant; assay type: functional, organism-based
[7] = tested on: Human immunodeficiency virus 1; assay: Antiviral activity against HIV1 V106A mutant; assay type: functional, organism-based
[8] = tested on: Human immunodeficiency virus 1; assay: Antiviral activity against HIV1 Y181C mutant; assay type: functional, organism-based
[9] = tested on: Human immunodeficiency virus 1; assay: Antiviral activity against HIV1 Y188L mutant; assay type: functional, organism-based
[10] = tested on: Human immunodeficiency virus 1; assay: Antiviral activity against HIV1 V179E mutant; assay type: functional, organism-based
[11] = tested on: Human immunodeficiency virus 1; assay: Antiviral activity against HIV1 Y181H mutant; assay type: functional, organism-based
[12] = tested on: Human immunodeficiency virus 1; assay: Antiviral activity against HIV1 Y181S mutant; assay type: functional, organism-based

Row | Structure (SMILES) | EC50 [1] [nM] | CC50 (HEK293) [nM] | EC50 [2] [nM] | EC50 [3] [nM] | EC50 [4] [nM] | EC50 [5] [nM] | EC50 [6] [nM] | EC50 [7] [nM] | EC50 [8] [nM] | EC50 [9] [nM] | EC50 [10] [nM] | EC50 [11] [nM] | EC50 [12] [nM]
1 | C=CCCCC12CC1(C(=O)OCC)C(=O)Nc1ccc(Cl)cc12 (stereo not drawn) | 1 | > 10000 | 57 | 9 | 33 | 1250 | 35 | 260 | > 10000 | > 10000 | 304 | 89 | 1680
2 | CCCCC12CC1(C(=O)Nc1ccc(C(=O)O)cc1)C(=O)Nc1ccc(Cl)cc12 (stereo not drawn) | > 10000 | > 10000 | – | – | – | – | – | – | – | – | – | – | –
3 | CCCCCCC12CC1(C(=O)OCC)C(=O)Nc1ccc(Cl)cc12 (stereo not drawn) | 25 | > 10000 | 98 | 41 | 66 | 3080 | 53 | 878 | 2250 | > 10000 | 1600 | 61 | 929
4 | CCCCC12CC1(C(=O)Nc1ccncc1)C(=O)Nc1ccc(Cl)cc12 (stereo not drawn) | 8260 | > 10000 | – | – | – | – | – | – | – | – | – | – | –
5 | CCCCC12CC1(CO)C(=O)Nc1ccc(Cl)cc12 (stereo not drawn) | 743 | > 10000 | – | – | – | – | – | – | – | – | – | – | –
6 | CCCCC12CC1(COC)C(=O)Nc1ccc(Cl)cc12 (stereo not drawn) | 45 | > 10000 | 42 | 20 | 46 | 2920 | 33 | 726 | 5030 | > 10000 | 721 | 121 | 2700
7 | CCCCC1(C)c2cc(Cl)ccc2NC(=O)C1C(=O)OCC (stereo not drawn) | 1400 | > 10000 | – | – | – | – | – | – | – | – | – | – | –
8 | CCCCC12CC1(C(=O)N(C)CC)C(=O)Nc1ccc(Cl)cc12 (stereo not drawn) | > 10000 | > 10000 | – | – | – | – | – | – | – | – | – | – | –
9 | CCCCC12CC1(COC(C)=O)C(=O)Nc1ccc(Cl)cc12 (stereo not drawn) | 37 | > 10000 | 54 | 1 | 64 | 2620 | 45 | 4720 | 7460 | > 10000 | 735 | 59 | 2350
10 | CCOC(=O)C12CC1(C(C)C)c1cc(Cl)ccc1NC2=O (stereo not drawn) | > 10000 | > 10000 | – | – | – | – | – | – | – | – | – | – | –
11 | CCCCCC12CC1(C(=O)OCC)C(=O)Nc1ccc(Cl)cc12 (stereo not drawn) | 1 | > 10000 | 18 | 5 | 17 | 669 | 12 | 238 | 926 | > 10000 | 234 | 16 | 369
12 | CCCCC(=O)C12CC1(CCCC)c1cc(Cl)ccc1NC2=O (stereo not drawn) | 6300 | > 10000 | – | – | – | – | – | – | – | – | – | – | –
13 | CCCCC12CC1(C(=O)NCCC(=O)O)C(=O)Nc1ccc(Cl)cc12 (stereo not drawn) | > 10000 | > 10000 | – | – | – | – | – | – | – | – | – | – | –
14 | CCCCC12CC1(C(=O)Nc1ccc(C(N)=O)cc1)C(=O)Nc1ccc(Cl)cc12 (stereo not drawn) | 4550 | > 10000 | – | – | – | – | – | – | – | – | – | – | –
15 | CCCC12CC1(C(=O)OCC)C(=O)Nc1ccc(Cl)cc12 (stereo not drawn) | 45 | > 10000 | 132 | 26 | 97 | > 10000 | 41 | 1010 | > 10000 | > 10000 | 1890 | 210 | 1210
16 | CCCCC12CC1(C(=O)Nc1cccc(C#N)c1)C(=O)Nc1ccc(Cl)cc12 (stereo not drawn) | 160 | > 10000 | – | – | – | – | – | – | – | – | – | – | –
17 | CCOC(=O)C12CC1(CCc1ccccc1)c1cc(Cl)ccc1NC2=O (stereo not drawn) | 221 | > 10000 | – | – | – | – | – | – | – | – | – | – | –
18 | CCOC(=O)C12CC1(C1CCCC1)c1cc(Cl)ccc1NC2=O (stereo not drawn) | 3250 | > 10000 | – | – | – | – | – | – | – | – | – | – | –
19 | CCCCC12CC1(C(N)=O)C(=O)Nc1ccc(Cl)cc12 (stereo not drawn) | 12 | > 10000 | 46 | 1 | 15 | 3830 | 13 | 2180 | 7960 | > 10000 | 439 | 63 | 2520
20 | CCCCC12CC1(C(=O)NCC)C(=O)Nc1ccc(Cl)cc12 (stereo not drawn) | 747 | > 10000 | – | – | – | – | – | – | – | – | – | – | –
21 | CCOC(=O)C12CC1(Cc1ccccc1)c1cc(Cl)ccc1NC2=O (stereo not drawn) | > 10000 | > 10000 | – | – | – | – | – | – | – | – | – | – | –
22 | C=CCNC(=O)C12CC1(CCCC)c1cc(Cl)ccc1NC2=O (stereo not drawn) | 489 | > 10000 | – | – | – | – | – | – | – | – | – | – | –
23 | CCOC(=O)C12CC1(CC)c1cc(Cl)ccc1NC2=O (stereo not drawn) | 5040 | > 10000 | – | – | – | – | – | – | – | – | – | – | –
24 | CCCCC12CC1(C(=O)CCC)C(=O)Nc1ccc(Cl)cc12 (stereo not drawn) | 265 | > 10000 | – | – | – | – | – | – | – | – | – | – | –
25 | CCCCC12CC1(C(=O)OC)C(=O)Nc1ccc(Cl)cc12 (stereo not drawn) | 1 | > 10000 | 8 | > 10000 | 12 | 682 | 4 | 57 | 727 | 7340 | 244 | 8 | 581
